Test [1] has as its target T1, LiSir2rp1 (Leishmania infantum, UniProt A0A6L0XH39).
T1 construct: made in house
Nature of the test: LiSir2rp1 deacetylase inhibition. In kind it is biochemical. Here is the method:
(§1) T. brucei Sir2rp1 (accession number: AAX70528.1) tagged with a C-terminal hexahistidine was expressed and characterized essentiality as described previously L. infantum Sir2rp1 was expressed and purified as previously described.
(§2) The deacetylase activity was measured using the commercial SIRT1/Sir2 Deacetylase Fluorometric Assay Kit (CycLex,Japan) according to the manufacturer’s recommendations. Briefly, fluorescence emission after digestion of deacetylated substrates by a lysine specific endopeptidase was measured in a fluorometric plate reader (Synergy HT, BioTek) with excitation and emission wavelengths set at 340 and 440 nm, respectively, every 30 seconds for 1 hour. The slope of the linear part of the reaction was calculated and used as readout of enzyme activity.

Test [2] has as its system T. cruzi amastigotes. Briefly: High-content screening assay on intracellular T. cruzi amastigotes. It counts as cell-based, Trypanosoma cruzi. Conditions: up to a concentration of 2000 μM (2 mM). How it is done:
For the evaluation of the activity against T. cruzi amastigotes, high-content screening (HCS) was designed. In summary, 100 μL of host C2C12 cells (ATCC) were seeded in clear bottom black 96-well plates at a density of 2.5 x 10^4 cells/mL (2.5 × 10^3 cells/well). After 24 hrs, 50 μL of Y strain tissue culture-derived trypomastigotes were used to infect the host cells at a density of 7.5 x 10^5/mL (3.75 x 10^4 parasites/well). The parasites were allowed to infect for a 24 hr period, after which compounds were added in a volume of 50 μL. […] After 72 hrs of compound incubation, the wells were fixed with 4% paraformaldehyde for 15 to 30 mins. The plates were then washed once with deionized water and stained with a solution of DAPI (3 μM) for 1 hour. Plates were imaged in an INCell 2000 (GE Healthcare) high-content analyser by taking 16 pictures per well at 20 X objective amplification. Images were analysed with INCell Developer software (GE Healthcare) using the segmentation of host cell nuclei and parasite kinetoplast DNA. The measurement output used was the average number of parasites per cell calculated by the ratio of host cell nuclei/parasite kinetoplast DNA.
In this assay, the compounds are incubated for 72 hours with cells previously infected with wild-type trypomastigotes for 24 hours. The readout was done by comparing the average number of amastigotes per cell that developed by the end of the incubation period. The quality of the assay was statistically evaluated by the calculation of the z-factor [75], that represents the reliability of the assay in distinguishing positive controls confidently from negative controls. Varying from 0 to 1, z-factor values higher than 0.5 are considered acceptable for drug screening. The z-factor obtained was 0.68, validating the use of the assay (S3B Fig).

Test [3] has as its target T2, TbSir2rp1 (Trypanosoma brucei brucei, UniProt Q57V41).
T2 construct: hexahistidine (C); made in house
Briefly: TbSir2rp1 deacetylase inhibition. In kind it is biochemical. Here is the method: as §1, §2

Test [4] deals with TcSir2rp1 (Trypanosoma cruzi, UniProt Q4DVL9). Briefly: TcSir2rp1 NAD+-dependent deacetylase fluorimetric assay (CycLex kit). It counts as biochemical. Here is the method: The deacetylase activity was measured using the commercial SIRT1/Sir2 Deacetylase Fluorometric Assay Kit (CycLex,Japan) according to the manufacturer’s recommendations. Briefly, fluorescence emission after digestion of deacetylated substrates by a lysine specific endopeptidase was measured in a fluorometric plate reader (Synergy HT, BioTek) with excitation and emission wavelengths set at 340 and 440 nm, respectively, every 30 seconds for 1 hour. The slope of the linear part of the reaction was calculated and used as readout of enzyme activity. […]
Sequence of TcSir2rp1 (Q4DVL9 entry or part of it): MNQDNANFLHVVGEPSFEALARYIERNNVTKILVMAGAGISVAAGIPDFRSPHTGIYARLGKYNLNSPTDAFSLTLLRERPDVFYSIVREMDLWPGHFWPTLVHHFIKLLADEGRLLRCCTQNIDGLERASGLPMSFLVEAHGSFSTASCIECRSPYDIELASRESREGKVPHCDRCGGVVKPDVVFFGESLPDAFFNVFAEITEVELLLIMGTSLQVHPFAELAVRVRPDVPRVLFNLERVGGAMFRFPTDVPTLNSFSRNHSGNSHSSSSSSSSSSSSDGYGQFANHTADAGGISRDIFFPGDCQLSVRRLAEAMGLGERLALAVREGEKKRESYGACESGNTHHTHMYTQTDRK
A variety of the bisnaphthalimidopropyl (BNIPs) derivatives, as well as the newly synthetized derivatives were evaluated as potential TcSir2rp1 inhibitors. The enzymatic reactions were performed using a commercially available CycLex SIRT1/Sir2 deacetylase fluorimetric kit (CycLex Co. Ltd., Nagano, Japan) in the absence and presence of the various inhibitors, 200 μM NAD^+ and 10 μM of peptide substrate as previously described.
A variety of the bisnaphthalimidopropyl (BNIPs) derivatives, as well as the newly synthetized derivatives were evaluated as potential TcSir2rp1 inhibitors. The enzymatic reactions were performed using a commercially available CycLex SIRT1/Sir2 deacetylase fluorimetric kit (CycLex Co. Ltd., Nagano, Japan) in the absence and presence of the various inhibitors, 200 µM NAD^+ and 10 µM of peptide substrate as previously described.

In test [5] the test system is Plasmodium falciparum Sir2A. On the set-up: method as in PMID 19937668, PMID 18221799. Conditions: previously described; ref [46], [72]; cited from earlier work.
Test [6] deals with T3, human SIRT1 (Homo sapiens, UniProt Q96EB6).
T3 sequence (Q96EB6 1-747): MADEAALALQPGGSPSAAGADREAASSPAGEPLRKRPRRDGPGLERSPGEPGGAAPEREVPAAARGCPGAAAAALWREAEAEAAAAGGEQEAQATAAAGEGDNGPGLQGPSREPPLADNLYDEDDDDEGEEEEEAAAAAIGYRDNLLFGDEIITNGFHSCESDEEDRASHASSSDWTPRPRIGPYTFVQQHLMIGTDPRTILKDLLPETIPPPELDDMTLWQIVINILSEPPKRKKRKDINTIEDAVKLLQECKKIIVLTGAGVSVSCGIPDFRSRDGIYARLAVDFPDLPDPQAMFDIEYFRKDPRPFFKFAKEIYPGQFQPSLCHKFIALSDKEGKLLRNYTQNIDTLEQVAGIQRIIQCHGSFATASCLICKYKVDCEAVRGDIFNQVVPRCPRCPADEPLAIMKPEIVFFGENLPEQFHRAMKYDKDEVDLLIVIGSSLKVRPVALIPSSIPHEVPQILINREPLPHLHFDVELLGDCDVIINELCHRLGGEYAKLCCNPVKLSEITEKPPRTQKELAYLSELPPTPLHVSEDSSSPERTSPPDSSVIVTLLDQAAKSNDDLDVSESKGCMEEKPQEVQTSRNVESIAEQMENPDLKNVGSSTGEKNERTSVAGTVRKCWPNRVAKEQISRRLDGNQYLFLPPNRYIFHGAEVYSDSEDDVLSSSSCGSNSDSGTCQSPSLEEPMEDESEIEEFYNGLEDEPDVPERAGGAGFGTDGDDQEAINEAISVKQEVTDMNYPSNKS
Briefly: hSIRT1 deacetylase inhibition (CycLex kit). In kind it is biochemical. The settings on record: 200 μM.

T1 sequence (A0A6L0XH39 entry or part of it): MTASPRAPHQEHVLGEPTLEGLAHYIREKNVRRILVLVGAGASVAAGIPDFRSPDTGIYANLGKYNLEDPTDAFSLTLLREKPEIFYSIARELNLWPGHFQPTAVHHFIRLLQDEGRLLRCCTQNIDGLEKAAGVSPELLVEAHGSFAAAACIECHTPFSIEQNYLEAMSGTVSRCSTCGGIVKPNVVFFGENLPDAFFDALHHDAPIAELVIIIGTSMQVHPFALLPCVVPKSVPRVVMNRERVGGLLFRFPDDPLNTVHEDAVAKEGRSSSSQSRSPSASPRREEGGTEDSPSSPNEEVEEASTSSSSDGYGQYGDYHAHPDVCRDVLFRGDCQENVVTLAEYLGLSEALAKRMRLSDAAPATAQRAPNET
T2 sequence (Q57V41 whole entry): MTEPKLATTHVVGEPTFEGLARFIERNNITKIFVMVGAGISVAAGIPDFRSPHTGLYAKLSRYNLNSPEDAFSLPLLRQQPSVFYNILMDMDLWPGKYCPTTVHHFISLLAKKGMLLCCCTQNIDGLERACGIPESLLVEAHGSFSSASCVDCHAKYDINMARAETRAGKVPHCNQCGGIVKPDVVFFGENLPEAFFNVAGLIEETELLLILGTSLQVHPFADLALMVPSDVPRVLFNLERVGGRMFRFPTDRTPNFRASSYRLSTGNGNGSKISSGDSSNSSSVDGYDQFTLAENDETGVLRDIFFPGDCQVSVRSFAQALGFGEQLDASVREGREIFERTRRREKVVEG

The inhibition is the share of the control response that was lost under treatment. By IC50 is commonly meant the concentration needed to halve the response being measured. Consider `NC(=O)c1cccnc1` [Nicotinamide, nicotinamide, reference compound], for which the inhibition at 200 µM in test [1] was 82%; in test [3], 70 ± 5%; in test [4] (200 μM), 34 ± 1%; in test [6], 66 ± 10%. The “Activity in the amastigote assay” value in test [2] is “no amastigote anti-parasitic activity was detected”. Besides, the IC50 is 456 ± 44 µM in test [4] (10 μM Ac-peptide and 200 μM NAD+, read-out: IC50 of TcSir2rp1 inhibition); 51.2 ± 3 µM in test [5].

The values are drawn from paper PMC5794198, “Inhibitors of Trypanosoma cruzi Sir2 related protein 1 as potential drugs against Chagas disease” (PLoS Neglected Tropical Diseases, 2018).
